Data published in patent US6472424B1, “Stabilized antimicrobial compositions containing halopropynyl compounds and benzylidene camphors” (Troy Technology Corporation, Inc., priority 2000, dated 2002).

Experiment: Light-induced yellowing of IPBC-containing white test paint film after UV exposure
Assay type: physicochemical
Details: for effectiveness of the UV absorber in inhibiting degradation/yellowing of the IPBC: same test, assessment in words compared to the blank; for Δb value (difference in yellowing between blank paint and candidate paint sample): styrenated acrylic white house paint, IPBC 0.3%, formulation 20% IPBC / 40% UV absorber / 40% N-methyl pyrrolidone, paint film exposed to 340 nm UV radiation for four hours
Protocol: In the following examples a styrenated acrylic white house paint was used as the test medium to measure the effect of sunlight on the degradation of IPBC in various IPBC-containing compositions. The test paint composition was prepared by adding ingredients 2 through 6 slowly to a mixer containing water (ingredient 1). After mixing the composition for about 10 minutes, ingredients 7 through 11 were added, and mixing was continued until a smooth dispersion was obtained. Then the final two ingredients were added. Additional water can be added to obtain a desired viscosity.
In the following examples, a number of liquid formulations were prepared, each containing (1) 20% by weight IPBC (Troysan ® Polyphase® P-100), (2) 40% by weight of one of the UV absorbers indicated in each example which follows, and (3) 40% by weight of N-methyl pyrrolidone as a liquid vehicle. Each formulation was then incorporated into the white test paint by mixing in an amount sufficient to provide a test paint having IPBC present at a level of 0.3%. The paint formulations containing IPBC and UV absorbers were then applied on a Leneta chart with help of a 3 mil Bird type applicator. The paint film was allowed to dry for 10-15 minutes and then sprayed with a clear non-yellowing varnish (-3 mils), namely, Kamar Varnish 1312. The varnish was obtained from Krylon Products Group, The Specialty Division, Division of Sherwin-Williams Company, Ohio. The object of the varnish was to trap any of the chromophores formed during subsequent UV light exposure and to assure a short and reproducible test for accessing light-induced yellowing.
The paint film thus produced was exposed to 340 nm UV radiation for four hours and the yellowing was measured by Microflash 200D or Byk Handy Color measurement device. The difference in yellowing between a blank (the white test paint without fungicide) and the candidate paint sample, Δb, was recorded and used as the response for each test.

| Compound | effectiveness of the UV absorber in inhibiting degradation/yellowing of the IPBC | Δb value (difference in yellowing between blank paint and candidate paint sample) |
| --- | --- | --- |
| Cc1ccccc1C=C1C(=O)C2(C)CCC1C2(C)C (stereo not drawn) [3-(2-methylbenzylidene)camphor] | reasonably effective | 3.4 |
| CC12CCC(C(=Cc3ccc4c(c3)OCCO4)C1=O)C2(C)C (stereo not drawn) [3-(3,4-dioxoethylenebenzylidene)camphor] | effective in inhibiting degradation of the IPBC | 2.4 |
| CC12CCC(C(=Cc3cccc(Cl)c3)C1=O)C2(C)C (stereo not drawn) [3-(3-chlorobenzylidene)camphor] | reasonably effective | 3.3 |
| Cc1cccc(C=C2C(=O)C3(C)CCC2C3(C)C)c1 (stereo not drawn) [3-(3-methylbenzylidene)camphor] | effective in inhibiting degradation of the IPBC | 2.7 |
| CC12CCC(C(=Cc3ccc(Br)cc3)C1=O)C2(C)C (stereo not drawn) [3-(4-bromobenzylidene)camphor] | reasonably effective | 3.6 |
| CCCCOc1ccc(C=C2C(=O)C3(C)CCC2C3(C)C)cc1 (stereo not drawn) [3-(4-butoxybenzylidene)camphor] | very effective | 1.8 |
| CCOc1ccc(C=C2C(=O)C3(C)CCC2C3(C)C)cc1 (stereo not drawn) [3-(4-ethoxybenzylidene)camphor] | very effective | 1.3 |
| CC(C)c1ccc(C=C2C(=O)C3(C)CCC2C3(C)C)cc1 (stereo not drawn) [3-(4-isopropylbenzylidene)camphor] | reasonably effective | 3.5 |
| COc1ccc(C=C2C(=O)C3(C)CCC2C3(C)C)cc1 (stereo not drawn) [3-(4-methoxybenzylidene)camphor] | very effective | 1.3 |
| Cc1ccc(C=C2C(=O)C3(C)CCC2C3(C)C)cc1 (stereo not drawn) [3-(4-methylbenzylidene)camphor] | effective in inhibiting degradation of the IPBC | 2.5 |
| CCCCNC(=O)OCC#CI [IPBC, 3-iodo-2-propynyl butyl carbamate, reference compound] | a significant yellow color develops | 7.1 |
| CC12CCC(C(=Cc3ccccc3)C1=O)C2(C)C (stereo not drawn) [benzylidenecamphor] | effective in inhibiting degradation of the IPBC | 2.8 |
